Data published in patent US12054495B2, “Substituted macrocyclic compounds and related methods of treatment” (Alkermes, Inc., priority 2019, dated 2024).

How the values were obtained:
Type in all cases: in vitro ADME
MDR1 = experiment: MDCK-MDR1 permeability assay; conditions: dog; for Papp A→B at 2 h, 3 μM: MDCK-MDR1, MDCK-MDR1 cells, apical to basolateral, 3 μM test compound, 2 hours at 37 degrees C; for efflux ratio at 2 h, 3 μM: MDCK-MDR1, Papp (basolateral to apical) divided by Papp (apical to basolateral), MDCK-MDR1 cells, read-out: Efflux ratio (ER)
Method: The bidirectional permeability (Apical to Basal and Basal to Apical directions) of test compounds in MDCK-MIDR1 cells were evaluated using MDCK-MIDR1 cells seeded in Solvo PreadyPort™ MIDCK 96-well plate. Once the plate was received from ReadyCell (Barcelona, Spain), it was treated as per PreadyPort™ user's manual.
For the Apical to Basolateral (A→B) permeability, 80 μL of test compound (3 μM) co-dosed with LY (Lucifer Yellow) (100 μM) in HBSS (Hank's Balanced Salt Solution) assay buffer was added to the donor side (A) while 250 μL of HBSS buffer was added to the receiver side (B). For the Basolateral to Apical (B→A) permeability, 255 μL of test compound (3 μM) in HBSS assay buffer was added to the donor side (B) while 75 μL of HBSS buffer containing LY (100 μM) was added to the receiver side (A).
The plate was placed in an incubator set at 37 degrees C. After 10 minutes of pre-warming, 5 μL aliquot was taken from donor compartment and set aside as the dosing solution. The MDCK-MDR1 incubation plate was placed back into the incubator for 2 hours of incubation at 37 degrees C. After 2 hours of incubation, 25 μL and 5 μL aliquots were removed from the receiver and donor sides, respectively. To the 5 μL aliquots taken from the donor sides (before and after a 2-hour incubation) were diluted with 20 μL of the HBSS buffer. All samples were mixed with 150 μL with acetonitrile containing internal standard (IS) and 200 μL water, and analyzed by LC-MS/MS.
The apparent permeability (Papp) was calculated using the following formula: Papp=dQ/dt×1/A×C0 where: • dQ/dt: amount of translocated material over incubation time (nmol/s) • A: area of insert (0.14 cm^2 for PreadyPort™ MDR1-96) • C0: initial concentration of product applied in apical (A→B) or basal (B→A) compartment (nmol/mL)
The efflux ratio (ER) was measured by dividing the Papp (basolateral to apical direction) by Papp (apical to basolateral direction). It is a general measure of the involvement of active processes. An ER>2 is considered positive for active transport.
The data reported in Table 3 were obtained according to the MDCK-MIDR1 permeability assay described above.

[1] = Hepatocytes stability assay (human hepatocytes); conditions: both sexes, cryopreserved hepatocytes, 1 μM test compound, 1×10^6 cell/mL, 37 degrees C, read-out: CLint (μL/min/million cells)
Method: (§1) In vitro metabolic stability was assessed using cryopreserved hepatocytes from male Sprague Dawley rats and a pool of 50 mixed gender humans (BioIVT, Baltimore, MD). The incubation mixtures were prepared by mixing 250 μL of pre-warmed KHB (Krebs-Henseleit buffer) containing 2×10^6 cell/mL of hepatocytes with 250 μL of pre-warmed KHB buffer containing 2 μM of test compounds in a 48-well plate, giving a final concentration of 1 μM test compound (0.1% DMSO) and 1×10^6 cell/mL of hepatocytes. The reaction mixture was incubated at 37 degrees C. A 50 μL aliquot of incubation mixture was taken at time points (0, 15, 30, 60, 120 and 240 minutes) and transferred into a 96-well plate containing 300 μL ice-cold acetonitrile (containing 30 ng/mL of labetalol and 10 ng/mL of Naltrexone-d3 as internal standards) and immediately placed in ice to terminate the reaction. Samples were centrifuged, and supernatants were transferred into 96-well plates for liquid chromatography with tandem mass spectrometry (LC-MS/MS) analysis to monitor the depletion of the test compound.
(§2) Data was calculated as percent remaining by assuming zero-minute time point peak area ratio (analyte/IS) as 100% and dividing remaining time point peak area ratios by zero-minute time point peak area ratio. Data were fitted to a first-order decay model to determine half-life. From a plot of log (ln) peak area against time, the slope of the line was determined. Subsequently, half-life (T1/2) and intrinsic clearance (CLint) were calculated using the equations below: Elimination rate constant (k)=(−slope) Half-life (T1/2)min=0.693/k Intrinsic Clearance (CLint) (mL/min/million cells)=(V×0.693)/T1/2 V=incubation volume mL/number of cells The in vitro T1/2 was converted to in vitro intrinsic clearance (CLint,hep) in units of mL/min/kg using the formula shown below:
(§3) [formula] The in vitro intrinsic clearance (CLint,hep) was scaled to in vivo hepatic clearance (CL,hep) using the following equation which was adapted from a well-stirred model.
(§4) [formula] where Q is the liver blood flow and fu is the fraction unbound (assumed to be unity in this case). All parameters used in the calculation are shown below (Table 4).
(§5) The extraction ratio (ER) was calculated by dividing the hepatic clearance of a compound to the liver blood flow. The data reported in Table 5 were obtained according to the human hepatocytes stability assay described above.

human hepatocytes = experiment: Hepatocytes stability assay (human hepatocytes); conditions: scaled hepatic clearance divided by liver blood flow, fu assumed unity
Method: as §1, §2, §3, §4, §5

Papp A→B at 2 h, 3 μM (MDR1) [×10⁻⁶ cm/s] | efflux ratio at 2 h, 3 μM (MDR1) | hepatocyte CLint at 1 μM [1] [µL/min/1e6 cells] | Extraction Ratio (ER) (human hepatocytes) | SMILES
6.3 | 1.9 | 65 | 0.91 | CC1(C)CN2CCC[C@H](NS(C)(=O)=O)C2COC2CCC(CC2)c2ccccc2O1 (stereo partly shown) [Compound 44]
1.2 | 12 | 44 | 0.87 | CS(=O)(=O)N[C@H]1CCCN2C(=O)C(F)(F)Oc3c(F)cc(F)cc3C3CCC(CC3)OCC12 (stereo partly shown) [Compound 52]
0.29 | 15 | 8.3 | 0.55 | CS(=O)(=O)N[C@H]1CCCN2C(=O)CCc3ccccc3C3CCC(CC3)OCC12 (stereo partly shown) [Compound 10]
3.9 | 2 | 23 | 0.77 | CS(=O)(=O)N[C@H]1CCN2C(=O)COc3ncccc3C3CCC(CC3)OCC12 (stereo partly shown) [Compound 18]
0.15 | > 100 | 14 | 0.67 | CS(=O)(=O)N[C@H]1CCCN2C(=O)CCOc3ccccc3C3CCC(CC3)OCC12 (stereo partly shown) [Compound 1]
0.83 | 30 | 9 | 0.57 | CS(=O)(=O)N[C@H]1CCCN2C(=O)COc3ncc(F)cc3C3CCC(CC3)OCC12 (stereo partly shown) [Compound 64]
21 | 0.66 | 45 | 0.87 | CS(=O)(=O)N[C@H]1CCCN2CCOc3ccccc3C3CCC(CC3)OCC12 (stereo partly shown) [Compound 6]
11 | 1.3 | 52 | 0.89 | CS(=O)(=O)N[C@H]1CCN2C(=O)COc3c(F)cccc3C3CCC(CC3)OCC12 (stereo partly shown) [Compound 42]
0.47 | 97 | 28 | 0.81 | CS(=O)(=O)N[C@H]1CCCN2C(=O)CCCOc3ccccc3C3CCC(CC3)OCC12 (stereo partly shown) [Compound 4]
1.5 | 10 | 62 | 0.90 | CS(=O)(=O)N[C@H]1CCCN2CCOc3c(F)cc(F)cc3C3CCC(CC3)OCC12 (stereo partly shown) [Compound 58]
2 | 5.5 | 33 | 0.83 | CS(=O)(=O)N[C@H]1CCCN2CCOc3ccc(Cl)cc3C3CCC(CC3)OCC12 (stereo partly shown) [Compound 61]
12 | 1.1 | 34 | 0.83 | CS(=O)(=O)N[C@H]1CCN2C(=O)COc3c(F)cc(F)cc3C3CCC(CC3)OCC12 (stereo partly shown) [Compound 43]
2 | 9.5 | 66 | 0.91 | CC1(C)Oc2ccccc2C2CCC(CC2)OCC2[C@@H](NS(C)(=O)=O)CCCN2C1=O (stereo partly shown) [Compound 36]
3.6 | 5.1 | 65 | 0.91 | CS(=O)(=O)N[C@H]1CCCN2C(=O)C(F)(F)Oc3ccccc3C3CCC(CC3)OCC12 (stereo partly shown) [Compound 40]
24 | 0.49 | 47 | 0.88 | CS(=O)(=O)N[C@H]1CCN2CCOc3ccccc3C3CCC(CC3)OCC12 (stereo partly shown) [Compound 39]
26 | 0.55 | 47 | 0.88 | CS(=O)(=O)N[C@H]1CCCN2CCOc3c(F)cccc3C3CCC(CC3)OCC12 (stereo partly shown) [Compound 13]
0.8 | 34 | 43 | 0.87 | CS(=O)(=O)N[C@H]1CCCN2C(=O)CCCCOc3ccccc3C3CCC(CC3)OCC12 (stereo partly shown) [Compound 3]
0.16 | 51 | 2.1 | 0.24 | CS(=O)(=O)N[C@H]1CCCN2C(=O)COc3ccc(Br)cc3C3CCC(CC3)OCC12 (stereo partly shown) [Compound 57]
2.2 | 5.5 | 33 | 0.83 | CS(=O)(=O)N[C@H]1CCCN2C(=O)COc3c(F)cccc3C3CCC(CC3)OCC12 (stereo partly shown) [Compound 11]
2.6 | 7.3 | 56 | 0.89 | CS(=O)(=O)N[C@H]1CCN2C(=O)C(F)(F)Oc3c(F)cc(F)cc3C3CCC(CC3)OCC12 (stereo partly shown) [Compound 54]
15 | 0.5 | 34 | 0.84 | CS(=O)(=O)N[C@H]1CCCN2CCOc3ncccc3C3CCC(CC3)OCC12 (stereo partly shown) [Compound 65]
2.8 | 7.9 | 19 | 0.92 | CS(=O)(=O)N[C@H]1CCN2C(=O)C(F)(F)Oc3ccccc3C3CCC(CC3)OCC12 (stereo partly shown) [Compound 53]
